Laboratory results reported in US20220400729A1, “SYNERGISTIC COMBINATION OF BUTYRIC-ACID-PRODUCING PREBIOTICS AND PROBIOTICS” (INNER MONGOLIA YILI INDUSTRIAL GROUP CO., LTD, priority 2019, published 2022).

System: Bifidobacterium lactis HNO19
Experiment: Growth test of Bifidobacterium lactis HNO19: organic acids in culture broth by HPLC
Type: cell-based
Details: HNO19 in MRS+0.05% cysteine medium with 1% carbon source, HPLC at 12 hours
Protocol: Bifidobacterium lactis HNO19 was purchased from Danisco. The strain was cultured in de Man Rogosa Sharpe (MRS) broth (Difco, Detroit, Md.) supplemented with 0.5 g/LL-cysteine and incubated for 24 h at 37° C. under anaerobic conditions. […] After the second passage, the culture was prepared for use as inoculum for the growth tests described below. Various carbon source stock solutions were sterilized by passing through 0.22 micron filters and used at 1% final concentration. […] The contents of lactic acid, acetic acid, propionic acid and butyric acid in the above-mentioned various combined culture broths were measured by high performance liquid chromatography (HPLC) at 12 hours.

In the case of `OC[C@H]1O[C@@H](O[C@@H]2[C@@H](CO)O[C@](O)(CO)[C@H]2O)[C@H](O)[C@@H](O)[C@H]1O` [LOS, 4-O-β-D-galactopyranosyl-4-D-fructose], the “Contents of organic acids in the culture medium: Acetic acid” value is reported as 0.238 ± 0.002, the “Contents of organic acids in the culture medium: Lactic acid” value is reported as 0.034 ± 0.002 and the “Contents of organic acids in the culture medium: Total amount of organic acid” value is reported as 0.272 ± 0.004.
